Test system: pFGFR4 in MDA-MB-453 cells
Assay: FGFR4 signaling, pFGFR4 (MDA); Western blot (Method A), MSD (Method B), ELISA (Method C)
Format: cell-based
Protocol: The MDA-MB-453 protein concentrations were determined by a BCA Assay (Pierce, Rockford, Ill.). A sample of 50-100 μg of each lysate was separated by a 4-12% gradient (SDS-PAGE (Invitrogen)), transferred to a nitrocellulose membrane (Biorad, Hercules, Calif.), and probed with specific antibodies. Phospho-protein signals were quantitated using Odyssey Infrared Imaging (Li-Cor Biosciences).
To assess phospho-FGFR signaling, the blots were probed with anti-Phospho-FGFR (Y653/Y654) and total anti-FGFR antibodies. The phospho-FGFR signal was normalized to total FGFR expression for each sample.

[1] = Homo sapiens, MDA-MB-453, MDA-MB-453 cells, Method B (MSD) for signaling EC50 determination
[2] = Homo sapiens, MDA-MB-453 cells, Method B (MSD) for signaling EC50 determination

C=CC(=O)NC1CCCCC1Nc1ncc2c(n1)N(C)C(=O)N(c1cc(OC)cc(OC)c1)C2 (racemic) [Compound I-18] gave an EC50 [1] of over 1000 nM.

C=CC(=O)NC1CCCCC1Nc1ncc2c(n1)N(Cc1cccnc1)C(=O)N(c1c(Cl)c(OC)cc(OC)c1Cl)C2 (racemic) [Compound I-35] showed an EC50 [2] of 101 to 500 nM.

C=CC(=O)NC1CCCCC1Nc1ncc2c(n1)N(C1CCCN(C(=O)OC(C)(C)C)C1)C(=O)N(c1cc(OC)cc(OC)c1)C2 (racemic) [Compound I-45] was tested, and the EC50 [1] was over 1000 nM.

Work on C=CC(=O)NC1CCCCC1Nc1ncc2c(n1)N(C1CCCNC1)C(=O)N(c1cc(OC)cc(OC)c1)C2 (racemic) [Compound I-46] yielded an EC50 [1] of over 1000 nM.

C=CC(=O)NC1CCCCC1Nc1ncc2c(n1)N(C1CCC1)C(=O)N(c1c(Cl)c(OC)cc(OC)c1Cl)C2 (racemic) [Compound I-70] was tested, and the EC50 [2] was 101 to 500 nM.

Work on C=CC(=O)NC1CCCCC1Nc1ncc2c(n1)NC(=O)N(c1c(Cl)c(OC)cc(OC)c1Cl)C2 (racemic) [Compound I-73] yielded an EC50 [2] of 101 to 500 nM.

Compound C=CC(=O)NC1CCCCC1Nc1ncc2c(n1)N(Cc1cccc(NS(C)(=O)=O)c1)C(=O)N(c1c(Cl)c(OC)cc(OC)c1Cl)C2 (racemic) [Compound I-89] has an EC50 [2] of 101 to 500 nM.

C=CC(=O)NC1CCCC1Nc1ncc2c(n1)N(C)C(=O)N(c1c(Cl)c(OC)cc(OC)c1Cl)C2 (racemic) [Compound I-112] gave an EC50 [2] of 101 to 500 nM.

Compound C=CC(=O)NC1CCCCC1Nc1ncc2c(n1)N(CC1CC1)C(=O)N(c1c(Cl)c(OC)cc(OC)c1Cl)C2 (racemic) [Compound I-129] has an EC50 [2] of 101 to 500 nM.

In the case of C=CC(=O)Nc1ccccc1Nc1ncc2c(n1)N(C)C(=O)N(c1c(Cl)c(OC)cc(OC)c1Cl)C2 [Compound I-2], the EC50 (Homo sapiens, MDA-MB-453 cells, Method A (Western blot) for signaling EC50 determination) is reported as under 100 nM.

In the case of C=CC(=O)Nc1ccccc1Nc1ncc2c(n1)N(Cc1ccccc1)C(=O)N(c1c(Cl)c(OC)cc(OC)c1Cl)C2 [Compound I-3], the EC50 (Homo sapiens, MDA-MB-453 cells, Method C (ELISA) for signaling EC50 determination) is reported as under 100 nM.

Compound C=CC(=O)Nc1cc(C(F)(F)F)ccc1Nc1ncc2c(n1)N(Cc1ccccc1)C(=O)N(c1c(Cl)c(OC)cc(OC)c1Cl)C2 [Compound I-10] has an EC50 (MDA-MB-453 cells, Method B (MSD) for signaling EC50 determination) of over 1000 nM.

For C=CC(=O)Nc1cc(Cl)c(Cl)cc1Nc1ncc2c(n1)N(Cc1ccccc1)C(=O)N(c1c(Cl)c(OC)cc(OC)c1Cl)C2 [Compound I-11], the EC50 [2] was over 1000 nM.

Compound C=CC(=O)Nc1ccccc1Nc1ncc2c(n1)N(Cc1cccc(F)c1)C(=O)N(c1c(Cl)c(OC)cc(OC)c1Cl)C2 [Compound I-12] has an EC50 [1] of under 100 nM.

Work on C=CC(=O)Nc1cc(OCCOC)ccc1Nc1ncc2c(n1)N(Cc1ccccc1)C(=O)N(c1cc(OC)cc(OC)c1)C2 [Compound I-14] yielded an EC50 [2] of 101 to 500 nM.

C=CC(=O)Nc1cc(N2CCN(CC)CC2)ccc1Nc1ncc2c(n1)N(C)C(=O)N(c1cc(OC)cc(OC)c1)C2 [Compound I-15] gave an EC50 [2] of under 100 nM.

Compound C=CC(=O)Nc1cc(N2CCOCC2)ccc1Nc1ncc2c(n1)N(C)C(=O)N(c1cc(OC)cc(OC)c1)C2 [Compound I-17] has an EC50 [2] of under 100 nM.

C=CC(=O)Nc1cc(N2CCN(CCOC)CC2)ccc1Nc1ncc2c(n1)N(C)C(=O)N(c1cc(OC)cc(OC)c1)C2 [Compound I-20] showed an EC50 [2] of under 100 nM.

C=CC(=O)Nc1ccccc1Nc1ncc2c(n1)N(C1CC1)C(=O)N(c1c(Cl)c(OC)cc(OC)c1Cl)C2 [Compound I-23] showed an EC50 [2] of under 100 nM.

C=CC(=O)Nc1ccccc1Nc1ncc2c(n1)N(Cc1ccc(Cl)c(OC)c1)C(=O)N(c1c(Cl)c(OC)cc(OC)c1Cl)C2 [Compound I-24] showed an EC50 [2] of under 100 nM.

Work on C=CC(=O)Nc1ccccc1Nc1ncc2c(n1)N(Cc1cccc(OC)c1)C(=O)N(c1c(Cl)c(OC)cc(OC)c1Cl)C2 [Compound I-28] yielded an EC50 [2] of under 100 nM.

C=CC(=O)Nc1ccc(N2CCN(CC)CC2)cc1Nc1ncc2c(n1)N(C)C(=O)N(c1cc(OC)cc(OC)c1)C2 [Compound I-30] gave an EC50 [2] of 101 to 500 nM.

C=CC(=O)Nc1cc(N2CCCCC2)ccc1Nc1ncc2c(n1)N(C)C(=O)N(c1cc(OC)cc(OC)c1)C2 [Compound I-31] was tested, and the EC50 [2] was 101 to 500 nM.

In the case of C=CCN1C(=O)N(c2cc(OC)cc(OC)c2)Cc2cnc(Nc3ccccc3NC(=O)C=C)nc21 [Compound I-32], the EC50 [2] is reported as under 100 nM.

C=CC(=O)Nc1ccccc1Nc1ncc2c(n1)N(C1CC1)C(=O)N(c1cc(OC)cc(OC)c1)C2 [Compound I-34] gave an EC50 [2] of under 100 nM.

Compound C=CC(=O)Nc1ccccc1Nc1ncc2c(n1)N(C)C(=O)N(c1ccccc1)C2 [Compound I-38] has an EC50 [1] of over 1000 nM.

C=CC(=O)Nc1ccccc1Nc1ncc2c(n1)N(CC1CCNCC1)C(=O)N(c1cc(OC)cc(OC)c1)C2 [Compound I-40] was tested, and the EC50 [2] was over 1000 nM.

For C=CC(=O)Nc1ccc(C)cc1Nc1ncc2c(n1)N(C)C(=O)N(c1cc(OC)cc(OC)c1)C2 [Compound I-49], the EC50 [2] was 501 to 999 nM.

C=CC(=O)Nc1ccccc1Nc1ncc2c(n1)N(C)C(=O)N(C1CCCCC1)C2 [Compound I-52] showed an EC50 [2] of over 1000 nM.

With C=CC(=O)Nc1cc(C2CCN(CC)CC2)ccc1Nc1ncc2c(n1)N(C)C(=O)N(c1cc(OC)cc(OC)c1)C2 [Compound I-54] the EC50 [2] was 101 to 500 nM.

With C=CC(=O)Nc1cc(C2=CCN(CC)CC2)ccc1Nc1ncc2c(n1)N(C)C(=O)N(c1cc(OC)cc(OC)c1)C2 [Compound I-56] the EC50 [2] was under 100 nM.

Work on C=CCCN1C(=O)N(c2cc(OC)cc(OC)c2)Cc2cnc(Nc3ccccc3NC(=O)C=C)nc21 [Compound I-57] yielded an EC50 [2] of under 100 nM.

C=CC(=O)Nc1ccccc1Nc1ncc2c(n1)N(CCC(O)CO)C(=O)N(c1cc(OC)cc(OC)c1)C2 (stereo not drawn) [Compound I-58] showed an EC50 [2] of 101 to 500 nM.

C=CC(=O)Nc1ccccc1Nc1ncc2c(n1)N(CC1CCN(C(=O)OC(C)(C)C)CC1)C(=O)N(c1cc(OC)cc(OC)c1)C2 [Compound I-60] showed an EC50 [2] of 101 to 500 nM.

Compound C=CC(=O)Nc1cc(N2CCN(C(=O)OC(C)(C)C)CC2)ccc1Nc1ncc2c(n1)N(C)C(=O)N(c1c(Cl)c(OC)cc(OC)c1Cl)C2 [Compound I-62] has an EC50 [2] of under 100 nM.

Compound C=CC(=O)Nc1ccccc1Oc1ncc2c(n1)N(C)C(=O)N(c1c(Cl)c(OC)cc(OC)c1Cl)C2 [Compound I-65] has an EC50 [1] of 101 to 500 nM.

For C=CC(=O)N[C@@H]1CCCC[C@@H]1Nc1ncc2c(n1)N(Cc1ccccc1)C(=O)N(c1c(Cl)c(OC)cc(OC)c1Cl)C2 [Compound I-66], the EC50 [2] was over 1000 nM.

C=CS(=O)(=O)Nc1ccccc1Nc1ncc2c(n1)N(C)C(=O)N(c1cc(OC)cc(OC)c1)C2 [Compound I-67] was tested, and the EC50 [2] was under 100 nM.

Work on C=CC(=O)Nc1ccc(-c2cnn(C)c2)cc1Nc1ncc2c(n1)N(C)C(=O)N(c1c(Cl)c(OC)cc(OC)c1Cl)C2 [Compound I-74] yielded an EC50 [2] of under 100 nM.

Work on C=CC(=O)Nc1ccccc1Nc1ncc2c(n1)N(C)C(=O)N(c1cc(OC)cc(OC)c1Cl)C2 [Compound I-75] yielded an EC50 [2] of under 100 nM.

C=CC(=O)Nc1cc(-c2cnn(C)c2)ccc1Nc1ncc2c(n1)N(C)C(=O)N(c1cc(OC)cc(OC)c1)C2 [Compound I-77] showed an EC50 [2] of under 100 nM.

Compound C=CC(=O)Nc1ccc(-c2nccs2)cc1Nc1ncc2c(n1)N(C)C(=O)N(c1cc(OC)cc(OC)c1)C2 [Compound I-78] has an EC50 [2] of 101 to 500 nM.

C=CC(=O)N[C@H]1CCCC[C@H]1Nc1ncc2c(n1)N(Cc1ccccc1)C(=O)N(c1c(Cl)c(OC)cc(OC)c1Cl)C2 [Compound I-82] showed an EC50 [2] of under 100 nM.

C=CC(=O)Nc1cc(-c2nccs2)ccc1Nc1ncc2c(n1)N(C)C(=O)N(c1cc(OC)cc(OC)c1)C2 [Compound I-84] was tested, and the EC50 [1] was 101 to 500 nM.

In the case of C=CC(=O)Nc1ccccc1Nc1ncc2c(n1)N(Cc1cscn1)C(=O)N(c1c(Cl)c(OC)cc(OC)c1Cl)C2 [Compound I-86], the EC50 [2] is reported as under 100 nM.

C=CC(=O)Nc1ccccc1Nc1ncc2c(n1)N(Cc1cccc(C#N)c1)C(=O)N(c1cc(OC)cc(OC)c1)C2 [Compound I-90] gave an EC50 [2] of 101 to 500 nM.

C=CC(=O)Nc1ccccc1Nc1ncc2c(n1)N(Cc1nccs1)C(=O)N(c1c(Cl)c(OC)cc(OC)c1Cl)C2 [Compound I-91] gave an EC50 [1] of under 100 nM.

With C=CC(=O)N[C@H]1CCCC[C@H]1Nc1ncc2c(n1)N(Cc1nccs1)C(=O)N(c1c(Cl)c(OC)cc(OC)c1Cl)C2 [Compound I-92] the EC50 [1] was 101 to 500 nM.

In the case of C=CC(=O)N[C@@H]1CCCC[C@@H]1Nc1ncc2c(n1)N(Cc1nccs1)C(=O)N(c1c(Cl)c(OC)cc(OC)c1Cl)C2 [Compound I-93], the EC50 [1] is reported as over 1000 nM.

For C=CC(=O)Nc1ccccc1Nc1ncc2c(n1)N(CC(=O)OC(C)(C)C)C(=O)N(c1cc(OC)cc(OC)c1)C2 [Compound I-96], the EC50 [1] was over 1000 nM.

With C=CC(=O)NC1CCCCC1Nc1ncc2c(n1)N(CC1CC1)C(=O)N(c1cc(OC)cc(OC)c1Cl)C2 (stereo not drawn) [Compound I-101] the EC50 [1] was 101 to 500 nM.

Work on C=CC(=O)Nc1ccccc1Nc1ncc2c(n1)N(CC(F)F)C(=O)N(c1c(Cl)c(OC)cc(OC)c1Cl)C2 [Compound I-103] yielded an EC50 [2] of under 100 nM.

Compound C=CC(=O)Nc1ccccc1Nc1ncc2c(n1)N(C)C(=O)N(c1cc(OC)cc(OC)c1F)C2 [Compound I-108] has an EC50 [2] of under 100 nM.

C=CC(=O)Nc1ccccc1Nc1ncc2c(n1)N(CC1CC1)C(=O)N(c1cc(OC)cc(OC)c1F)C2 [Compound I-109] gave an EC50 [2] of under 100 nM.

In the case of C=CC(=O)Nc1ccccc1Nc1ncc2c(n1)N(CC)C(=O)N(CC)C2 [Compound I-120], the EC50 [1] is reported as over 1000 nM.

C=CC(=O)Nc1cc(CN2CCN(CC)CC2)ccc1Nc1ncc2c(n1)N(C)C(=O)N(c1cc(OC)cc(OC)c1)C2 [Compound I-122] was tested, and the EC50 [1] was 101 to 500 nM.

C=CC(=O)Nc1cc(N2CCN(C(=O)CCC(=O)O)CC2)ccc1Nc1ncc2c(n1)N(C)C(=O)N(c1c(Cl)c(OC)cc(OC)c1Cl)C2 [Compound I-123] was tested, and the EC50 [2] was under 100 nM.

For C=CC(=O)Nc1ccccc1Nc1ncc2nc(-c3cc(OC)cc(OC)c3)c(=O)n(C)c2n1 [Compound I-128], the EC50 [1] was over 1000 nM.

C=CC(=O)Nc1ccccc1Nc1ncc2c(n1)N(CC1CC1)C(=O)N(c1c(Cl)c(OC)cc(OC)c1Cl)C2 [Compound I-130] showed an EC50 [2] of under 100 nM.

In the case of C=CC(=O)Nc1ccccc1Nc1ncc2c(n1)N(Cc1csc(C)n1)C(=O)N(c1c(Cl)c(OC)cc(OC)c1Cl)C2 [Compound I-134], the EC50 [2] is reported as under 100 nM.

Reference: patent publication US10774052B2, “Heteroaryl compounds and uses thereof” (Celgene CAR LLC, priority 2013, dated 2020)
